Our source for the IC50 values is publication PMC12348835, “Design, Docking Analysis, and Structure–Activity Relationship of Ferrocene-Modified Tyrosine Kinase Inhibitors: Insights into BCR-ABL Interactions” (Molecules, 2025).

The subject of series [1] is K-562. The series can be described thus: MTT cell viability assay, K-562. The class given is cell-based, human. The note with it: 72 h, ± standard deviation. The protocol: (§1) Cell viability was determined using the MTT colorimetric assay. […] Statistical significance was determined at p ≤ 0.05.
In general terms: Formazan colour is commonly taken as a measure of viable cells.

The subject of series [2] is BV-173. The series can be described thus: MTT cell viability assay, BV-173. The class given is cell-based, human. To be noted: 72 h, ± standard deviation. The protocol:
as §1

Series [3] has as its system AR-230. Nature of the series: MTT cell viability assay, AR-230. The series is classed as cell-based, human. To be noted: 72 h, ± standard deviation. As for the experimental part:
as §1

Series [4] relates to LAMA-84. Nature of the series: MTT cell viability assay, LAMA-84. The series is classed as cell-based, human. The note with it: 72 h, ± standard deviation. The protocol:
as §1

Series [5] relates to CCL-1. The series can be described thus: MTT cell viability assay, normal fibroblasts CCL-1. The note with it: 72 h, non-malignant fibroblasts, ± standard deviation. The class given is cell-based, murine. As for the experimental part: as §1
Series [6] relates to MDA-MB-231. Also noted: method as in doi:10.2533/chimia.2007.716. The note with it: hormone-independent breast cancer cells; cited from earlier work.
Series [7] in a line: MTT cell viability assay, normal fibroblasts CCL-1. The series is classed as cell-based, murine. The note with it: mouse, CCL-1 normal fibroblast cells, non-malignant fibroblasts, ± standard deviation. The protocol:
as §1

By IC50 is commonly meant the concentration that gives 50% inhibition. Consider `Cc1cn(-c2cc(NC(=O)c3ccc(C)c(Nc4nccc(-[c-]5cccc5)n4)c3)cc(C(F)(F)F)c2)cn1.[Fe+2].c1cc[cH-]c1` [Compound 9, 4-Methyl-N-(3-(4-methyl-1H-imidazol-1-yl)-5-(trifluoromethyl)phenyl)-3-((4-ferrocenylpyrimidin-2-yl)amino)benzamide], for which the IC50 in series [1] was 25.9 ± 2.9 µM; in series [2], 33.6 ± 2.3 µM; in series [3], 144 ± 10.6 µM; in series [4], 25.4 ± 2.4 µM; in series [5], greater than 200 µM.
Consider `Cc1ccc(C(=O)N[c-]2cccc2)cc1Nc1nccc(-c2cccnc2)n1.[Fe+2].c1cc[cH-]c1` [Compound 18, N-Ferrocenyl-4-methyl-3-((4-(pyridin-3-yl)pyrimidin-2-yl)amino)benzamide], for which the concentration for half-maximal inhibition (IC50) in series [1] is greater than 200 µM; in series [2], 15.1 ± 2.9 µM; in series [3], 5.1 ± 0.9 µM; in series [4] it was 26.8 ± 3.2 µM; in series [5], 60.2 ± 8.3 µM.
For `Cc1ccc(NC(=O)c2ccc(CN3CCN(C)CC3)cc2)cc1Nc1nccc(-[c-]2cccc2)n1.[Fe+2].c1cc[cH-]c1` [Compound 6, N-(4-Methyl-3-((4-ferrocenylpyrimidin-2-yl)amino)phenyl)-4-((4-methylpiperazin-1-yl)methyl)benzamide] the same measures were 29.9 ± 3.1 µM, 33.6 ± 2.1 µM, 5.9 ± 0.2 µM, 25.4 ± 2.9 µM and 55.7 ± 9.5 µM.
As for `CCC(=C(c1ccc(O)cc1)c1ccc(OCCCN(C)C)cc1)[c-]1cccc1.[Fe+2].c1cc[cH-]c1` [Hydroxy-ferrocifen], the IC50 in series [6] is 0.5 µM.
As to `Cc1ccc(NC(=O)[c-]2cccc2)cc1Nc1nccc(-c2cccnc2)n1.[Fe+2].c1cc[cH-]c1` [Compound 14, N-(4-Methyl-3-((4-(pyridin-3-yl)pyrimidin-2-yl)amino)phenyl)ferrocenecarboxamide], the IC50 was greater than 200 µM in series [1]; 17.9 ± 3.1 µM in series [2]; 5.1 ± 1.3 µM in series [3]; 27.3 ± 1.8 µM in series [4]; greater than 200 µM in series [5].
`Cc1ccc(NC(=O)c2ccc(CN3CCN(C)CC3)cc2)cc1Nc1nccc(-c2cccnc2)n1` [imatinib, reference compound]: the IC50 at 72 h in series [7] was greater than 200 µM.
Turning to `CC/C(=C(\c1ccc(O)cc1)c1ccc(OCCN(C)C)cc1)c1ccccc1` [Hydroxy-tamoxifen], in series [6], the IC50 is 30 µM.
